Laboratory results taken from patent publication US20120185956A1, “GLOBAL NAV1.7 KNOCKOUT MICE AND USES” (priority 2011, published 2012).

Tests used:
[1] = tested on: rats (Sprague-Dawley, male); conditions: rat, in vivo
Procedure: Veratridine was injected intra-plantar at 30 micrograms.
Known preclinical and clinical analgesics were tested to see if they could prevent veratridine-induced behaviors.

[2] = tested on: male mice (CD1 strain); conditions: mouse, in vivo
[3] = target: NaV1.9 (Rattus norvegicus, UniProt O88457); conditions: cited from earlier work
Chain of NaV1.9 (O88457 whole entry, looked up): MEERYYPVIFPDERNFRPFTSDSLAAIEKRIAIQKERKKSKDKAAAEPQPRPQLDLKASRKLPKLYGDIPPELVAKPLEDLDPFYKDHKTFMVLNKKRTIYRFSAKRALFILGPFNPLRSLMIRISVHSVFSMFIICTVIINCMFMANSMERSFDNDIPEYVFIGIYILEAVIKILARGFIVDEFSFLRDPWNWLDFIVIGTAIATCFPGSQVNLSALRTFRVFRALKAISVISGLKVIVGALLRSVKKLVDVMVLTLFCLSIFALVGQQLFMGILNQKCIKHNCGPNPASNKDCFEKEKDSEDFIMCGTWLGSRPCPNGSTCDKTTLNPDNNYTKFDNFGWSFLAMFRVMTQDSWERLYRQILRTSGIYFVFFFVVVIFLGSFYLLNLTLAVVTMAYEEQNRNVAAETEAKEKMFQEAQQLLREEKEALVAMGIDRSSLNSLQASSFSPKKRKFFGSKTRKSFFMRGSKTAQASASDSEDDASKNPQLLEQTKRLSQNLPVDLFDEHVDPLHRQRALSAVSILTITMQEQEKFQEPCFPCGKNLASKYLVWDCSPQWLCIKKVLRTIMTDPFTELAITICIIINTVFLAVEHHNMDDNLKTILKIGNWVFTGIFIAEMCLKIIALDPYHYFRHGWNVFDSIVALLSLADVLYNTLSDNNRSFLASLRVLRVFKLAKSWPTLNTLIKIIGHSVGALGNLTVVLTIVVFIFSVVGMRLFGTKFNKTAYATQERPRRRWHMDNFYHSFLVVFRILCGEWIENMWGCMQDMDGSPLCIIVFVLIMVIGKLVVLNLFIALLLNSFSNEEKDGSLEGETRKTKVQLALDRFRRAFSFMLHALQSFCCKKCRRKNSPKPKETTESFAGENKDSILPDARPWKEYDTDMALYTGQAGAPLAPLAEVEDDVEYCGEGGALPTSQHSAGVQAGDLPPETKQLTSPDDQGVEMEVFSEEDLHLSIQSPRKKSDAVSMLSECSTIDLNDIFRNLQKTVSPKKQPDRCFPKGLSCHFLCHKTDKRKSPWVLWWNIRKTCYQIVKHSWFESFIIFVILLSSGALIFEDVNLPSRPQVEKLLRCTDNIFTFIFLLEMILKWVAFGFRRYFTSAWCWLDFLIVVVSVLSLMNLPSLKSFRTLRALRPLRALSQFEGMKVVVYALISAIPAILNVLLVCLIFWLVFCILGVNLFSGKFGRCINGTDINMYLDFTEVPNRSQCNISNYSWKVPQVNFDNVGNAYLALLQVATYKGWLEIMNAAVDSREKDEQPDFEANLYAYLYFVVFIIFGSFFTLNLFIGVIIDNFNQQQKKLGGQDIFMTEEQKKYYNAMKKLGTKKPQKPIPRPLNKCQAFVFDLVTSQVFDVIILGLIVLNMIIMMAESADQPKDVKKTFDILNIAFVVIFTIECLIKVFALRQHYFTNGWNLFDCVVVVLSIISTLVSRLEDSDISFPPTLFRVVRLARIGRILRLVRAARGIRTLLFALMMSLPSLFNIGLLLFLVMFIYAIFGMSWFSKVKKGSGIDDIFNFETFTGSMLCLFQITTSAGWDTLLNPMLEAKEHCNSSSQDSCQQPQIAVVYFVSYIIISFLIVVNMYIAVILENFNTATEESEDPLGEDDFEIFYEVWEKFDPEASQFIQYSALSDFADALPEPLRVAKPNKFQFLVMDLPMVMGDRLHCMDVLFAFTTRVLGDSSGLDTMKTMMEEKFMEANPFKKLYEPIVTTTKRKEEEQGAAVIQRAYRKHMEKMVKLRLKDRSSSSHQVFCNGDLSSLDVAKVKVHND

[4] = target: NaV1.8 (Rattus norvegicus, UniProt Q62968); conditions: cited from earlier work
[5] = target: NaV1.5 (Rattus norvegicus, UniProt P15389); conditions: cited from earlier work
[6] = target: T1, hNaV1.7 (Homo sapiens, UniProt Q15858); assay type: cell-based
T1 construct: expressed in transfected cells; host or cells: HEK 293
T1 sequence (Q15858 whole entry): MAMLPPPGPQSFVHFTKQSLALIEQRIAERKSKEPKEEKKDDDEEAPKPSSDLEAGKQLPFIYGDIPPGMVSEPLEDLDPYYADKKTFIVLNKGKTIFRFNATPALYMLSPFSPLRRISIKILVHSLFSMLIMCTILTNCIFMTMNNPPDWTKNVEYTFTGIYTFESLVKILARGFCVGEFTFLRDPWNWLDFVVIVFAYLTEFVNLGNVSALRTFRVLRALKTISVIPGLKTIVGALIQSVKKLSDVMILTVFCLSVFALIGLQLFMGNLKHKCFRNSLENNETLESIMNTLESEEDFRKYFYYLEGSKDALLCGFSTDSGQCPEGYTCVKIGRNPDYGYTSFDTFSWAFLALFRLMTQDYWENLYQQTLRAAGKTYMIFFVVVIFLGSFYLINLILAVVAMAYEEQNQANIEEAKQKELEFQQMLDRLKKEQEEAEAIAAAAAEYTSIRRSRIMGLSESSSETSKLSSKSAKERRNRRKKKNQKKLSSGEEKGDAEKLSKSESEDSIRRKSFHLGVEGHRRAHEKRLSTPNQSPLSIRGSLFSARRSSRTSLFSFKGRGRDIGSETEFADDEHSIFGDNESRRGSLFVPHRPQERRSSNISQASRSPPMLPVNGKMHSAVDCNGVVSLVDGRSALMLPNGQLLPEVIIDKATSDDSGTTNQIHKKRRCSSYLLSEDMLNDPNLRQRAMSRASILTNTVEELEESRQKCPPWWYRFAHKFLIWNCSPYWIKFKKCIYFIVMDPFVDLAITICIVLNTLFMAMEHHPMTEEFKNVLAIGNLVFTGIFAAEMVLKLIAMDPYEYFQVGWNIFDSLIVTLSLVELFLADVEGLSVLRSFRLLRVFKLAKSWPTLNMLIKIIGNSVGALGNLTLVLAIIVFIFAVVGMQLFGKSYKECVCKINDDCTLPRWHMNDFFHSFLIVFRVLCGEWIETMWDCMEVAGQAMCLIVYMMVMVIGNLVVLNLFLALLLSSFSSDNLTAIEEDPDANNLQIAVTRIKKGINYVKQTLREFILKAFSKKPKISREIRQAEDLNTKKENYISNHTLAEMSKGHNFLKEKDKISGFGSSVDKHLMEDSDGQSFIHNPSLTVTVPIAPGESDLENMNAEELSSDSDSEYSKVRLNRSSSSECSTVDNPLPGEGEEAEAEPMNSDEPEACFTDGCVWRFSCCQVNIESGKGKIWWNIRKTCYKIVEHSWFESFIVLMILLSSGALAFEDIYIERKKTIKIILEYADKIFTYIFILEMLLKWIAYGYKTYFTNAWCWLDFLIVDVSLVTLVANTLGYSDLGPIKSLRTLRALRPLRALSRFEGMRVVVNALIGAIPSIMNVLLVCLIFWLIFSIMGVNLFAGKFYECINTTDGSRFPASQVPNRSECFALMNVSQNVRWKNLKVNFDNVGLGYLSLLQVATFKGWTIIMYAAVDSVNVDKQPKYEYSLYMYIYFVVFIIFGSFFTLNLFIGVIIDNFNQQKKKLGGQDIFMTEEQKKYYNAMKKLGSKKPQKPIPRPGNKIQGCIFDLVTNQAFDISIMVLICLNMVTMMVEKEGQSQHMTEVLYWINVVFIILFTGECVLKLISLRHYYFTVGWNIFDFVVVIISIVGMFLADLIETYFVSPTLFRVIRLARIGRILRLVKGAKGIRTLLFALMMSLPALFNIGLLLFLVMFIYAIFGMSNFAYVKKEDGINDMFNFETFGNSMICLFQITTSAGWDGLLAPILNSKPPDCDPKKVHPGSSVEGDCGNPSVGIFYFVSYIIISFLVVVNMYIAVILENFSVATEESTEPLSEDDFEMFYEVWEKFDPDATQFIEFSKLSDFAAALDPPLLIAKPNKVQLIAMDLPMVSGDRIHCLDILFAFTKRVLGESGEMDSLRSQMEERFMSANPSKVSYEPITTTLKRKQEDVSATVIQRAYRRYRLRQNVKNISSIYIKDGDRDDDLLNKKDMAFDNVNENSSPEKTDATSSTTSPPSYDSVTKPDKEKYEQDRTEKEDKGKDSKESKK

CN1C(=O)CN=C(c2ccccc2)c2cc(Cl)ccc21 [Diazepam]
Significant Reversal of Edema [1]: No
Significant Reversal of Flinching [1]: No
Significant Reversal of Lifting [1]: No
sodium channel activator-induced pain-like behaviors (licking, flinching) [1]: ineffective

CNCC[C@H](Oc1cccc2ccccc12)c1cccs1 [Duloxetine, duloxetine]
Significant Reversal of Edema [1]: No
sodium channel activator-induced pain-like behaviors (licking, flinching) [1]: inhibited somewhat

NCC1(CC(=O)O)CCCCC1 [Gabapentin, gabapentin]
Significant Reversal of Edema [1]: No

Cc1cccc(C)c1OCC(C)N (centres unmarked) [Mexiletine, mexiletine]
effects of veratridine (lifting) [2]: blocked
lifting/licking response to deltamethrin [2]: prevented the lifting/licking response
lifting/licking response to grayanotoxin III [2]: prevented the lifting/licking response
Significant Reversal of Edema [1]: Yes
Significant Reversal of Flinching [1]: Yes
Significant Reversal of Lifting [1]: Yes
veratridine-induced lifting and flinching behaviors ([1]; po): prevented in a dose-dependent manner

CN1CC[C@]23c4c5ccc(O)c4O[C@H]2[C@@H](O)C=C[C@H]3[C@H]1C5 [Morphine, morphine]
Significant Reversal of Edema [1]: No

COc1ccc2cc([C@H](C)C(=O)O)ccc2c1 [Naproxen, naproxen]
Significant Reversal of Edema [1]: No

NC1=N[C@H](O)[C@H]2[C@H]3O[C@]4(O)O[C@@H]([C@@H](O)[C@@]2(N1)[C@@H]4O)[C@]3(O)CO [TTX, tetrodotoxin]
block by TTX [3]: resistant to block
block by TTX [4]: resistant to block
block by TTX [5]: resistant to block

CC1(C)[C@H](C(=O)O[C@H](C#N)c2cccc(Oc3ccccc3)c2)[C@@H]1C=C(Br)Br [deltamethrin]
response to injected sodium channel modulator [2]: produced a lifting/licking response

CC1(O)CC23CC(O)C4(O)C(CC(O)C4(C)C)C(C)(O)C2CCC1C3O (centres unmarked) [grayanotoxin III]
inactivation during the test pulse [6]: did not inactivate
voltage at which sodium currents start to be activated [6]: −95 mV
response to injected sodium channel modulator [2]: produced a lifting/licking response

COc1ccc(C(=O)O[C@H]2CC[C@@]3(C)[C@@H]4CC[C@H]5[C@]6(O)C[C@H](O)[C@@]7(O)[C@@H](CN8C[C@@H](C)CC[C@H]8[C@@]7(C)O)[C@]6(O)C[C@@]53O[C@]24O)cc1OC [veratridine, 4α,9-Epoxy-3β-veratroyloxy-5β-cevan-4β,12,14,16β,17,20-hexaol]
lifting behavior caused by veratridine [2]: caused equivalent lifting behavior
pain-related behaviors caused by veratridine injected into the paw [1]: caused two separate pain-related behaviors
side effects of veratridine [1]: variable neurological side effects
